# Data from patent US9174985B2, “Salts of 7-(2,3-di-p-tolyl-7,8-dihydropyrido[2,3-b]pyrazin-5(6H)-yl)heptanoic acid as IP receptor agonists” (Novartis AG, priority 2012, dated 2015).
# Structures can show the parent of a compound that is named as a salt.
# Columns and labels:
# [1] = stability (physical stability, stability under light); assay type: physicochemical; conditions: for stability: free form, under light
# β2-adrenoceptor = β2-adrenoceptor (Homo sapiens, UniProt P07550); conditions: cited from earlier work
# Sequence of β2-adrenoceptor (P07550 whole entry, species assumed): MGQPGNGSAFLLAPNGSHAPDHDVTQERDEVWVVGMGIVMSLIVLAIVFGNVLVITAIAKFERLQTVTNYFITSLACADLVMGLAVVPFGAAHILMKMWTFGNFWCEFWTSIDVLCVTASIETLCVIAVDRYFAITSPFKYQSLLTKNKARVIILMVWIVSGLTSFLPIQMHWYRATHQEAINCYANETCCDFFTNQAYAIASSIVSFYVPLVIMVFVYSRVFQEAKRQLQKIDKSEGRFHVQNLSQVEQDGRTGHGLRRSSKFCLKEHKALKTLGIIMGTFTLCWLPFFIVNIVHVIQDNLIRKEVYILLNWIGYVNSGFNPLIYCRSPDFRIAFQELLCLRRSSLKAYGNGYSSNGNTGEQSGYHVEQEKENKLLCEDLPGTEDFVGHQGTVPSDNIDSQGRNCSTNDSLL
# rats = conditions: cited from earlier work
# [2] = tested on: human airway epithelial cells; conditions: human airway epithelial cells in vitro; cited from earlier work
# solubility = assay type: physicochemical; conditions: free form, in water
# dissolution rate = assay type: physicochemical; conditions: compared to the free form
# [3] = pH of a 1% solution/suspension in water; assay type: physicochemical; conditions: 10 mg salt in 1 mL water, ultrasound about 5 min, stirred one hour at RT, batch B, 24.3-25.2° C.
# Experimental: A mixture of 10 mg salt and 1 mL water was treated about 5 min with ultrasound. Afterwards, the mixture was stirred for one hour at RT followed by pH measurement.
# former smokers = conditions: oral; cited from earlier work
# [4] = listed as free form of 7-(2,3-di-p-tolyl-7,8-dihydropyrido[2,3-b]pyrazin-5(6H)-yl)heptanoi
smiles,measurement,setting,value
"Cc1ccc(-c2nc3c(nc2-c2ccc(C)cc2)N(CCCCCCC(=O)[O-])CCC3)cc1.[Na+] [Example 3, 7-(2,3-di-p-tolyl-7,8-dihydropyrido[2,3-b]pyrazin-5(6H)-yl)heptanoate sodium]",physical stability,[1],good
"CCc1cc2c(cc1CC)CC(NC[C@H](O)c1ccc(O)c3[nH]c(=O)ccc13)C2 [indacaterol, (R)-5-[2-(5,6-diethyl-indan-2-ylamino)-1-hydroxyethyl]-8-hydroxy-1H-quinolin-2-one]",duration of action,β2-adrenoceptor,over 24 hours
same,onset of action,β2-adrenoceptor,about 10 minutes
CC#CCC(C)[C@H](O)/C=C/[C@@H]1[C@H]2c3cccc(CCCC(=O)O)c3O[C@H]2C[C@H]1O (mixture of isomers) [Beraprost],development of experimental cigarette smoke-induced emphysema,rats,protected
O=C(O)c1cccc(/C=C2/C[C@@H]3[C@@H](/C=C/[C@@H](O)C4CCCCC4)[C@H](O)C[C@@H]3O2)c1 [Taprostene],generation of the CD8+ T cell chemoattractants CXCL9 and CXCL10,[2],suppressed
"Cc1ccc(-c2nc3c(nc2-c2ccc(C)cc2)N(CCCCCCC(=O)O)CCC3)cc1 [7-(2,3-di-p-tolyl-7,8-dihydropyrido[2,3-b]pyrazin-5(6H)-yl)heptanoic acid]",solubility,solubility,poorly soluble in water
same,solubility,solubility; [4],poor solubility
same,stability,[1],low stability under light
same,stability,[1]; [4],poor solubility and stability
"CS(=O)(=O)O.Cc1ccc(-c2nc3c(nc2-c2ccc(C)cc2)N(CCCCCCC(=O)O)CCC3)cc1 [mesylate salt of 7-(2,3-di-p-tolyl-7,8-dihydropyrido[2,3-b]pyrazin-5(6H)-yl)heptanoic acid]",dissolution rate,dissolution rate,significantly higher dissolution rate compared to the free form
"Cc1ccc(-c2nc3c(nc2-c2ccc(C)cc2)N(CCCCCCC(=O)O)CCC3)cc1 [Example 1, 7-(2,3-di-p-tolyl-7,8-dihydropyrido[2,3-b]pyrazin-5(6H)-yl)heptanoate sulfate]",physical stability,[1],good
same,pH of a 1% solution/suspension in water,[3]; sulfate,1.78
"Cc1ccc(-c2nc3c(nc2-c2ccc(C)cc2)N(CCCCCCC(=O)O)CCC3)cc1 [Example 4, 7-(2,3-di-p-tolyl-7,8-dihydropyrido[2,3-b]pyrazin-5(6H)-yl)heptanoate hydrochloride]",pH of a 1% solution/suspension in water,[3]; hydrochloride,2.3
CC#CCC(C)[C@H](O)/C=C/[C@@H]1[C@H]2C/C(=C/CCCC(=O)O)C[C@H]2C[C@H]1O (stereo partly shown) [iloprost],endobronchial dysplasia,former smokers,significantly improved
"Cc1ccc(-c2nc3c(nc2-c2ccc(C)cc2)N(CCCCCCC(=O)O)CCC3)cc1 [Example 2, 7-(2,3-di-p-tolyl-7,8-dihydropyrido[2,3-b]pyrazin-5(6H)-yl)heptanoate xinafoate]",photostability,[1],good
same,pH of a 1% solution/suspension in water,[3],6.46
